{"source": "paper PMC8469395", "about": "(Pharmaceutics, 2021)", "key": {"TR-iBRB2 cells [1]": {"tested_on": "TR-iBRB2 cells", "assay": "Effect of compounds on [3H]amantadine uptake by TR-iBRB2 cells", "format": "in vitro ADME, rat", "description": "(§1) In 10% fetal bovine serum (FBS; Merck, Darmstadt, Germany)-containing Dulbecco’s modified Eagle’s medium (DMEM; Nissui Pharmaceutical, Tokyo, Japan) with 20 mM NaHCO3, 0.19 mM benzylpenicillin potassium, and 0.14 mM streptomycin sulfate, TR-iBRB2 cells (passage number 32–60) were cultured according to previous reports. As described previously, RPE-J cells (passage number 79-92) were cultured in DMEM with 4% FBS, 20 mM NaHCO3, and 0.1 mM non-essential amino acid (FUJIFILM Wako Pure Chemical, Osaka, Japan) containing 0.16 mM benzylpenicillin potassium and 0.17 mM streptomycin sulfate. In accordance with established protocols for the uptake study, the cells were seeded at a density of 1.0 × 10^5 cells/well onto a collagen I-coated 24-well plate (BioCoat™ Collagen I Cellware, Corning, Corning, NY, USA) and cultured for 2 days, at 33 °C, under 5% CO2/air. Referring to the previous reports, we started the uptake reaction, and the details of the procedure are included in the Supplemental Materials.\n(§2) Cell/medium ratio = [^3H]compound (dpm) per cell protein (mg)/[^3H]compound (dpm) per medium (µL)(2) […]\n(§3) 7.4) three times at 37°C.\n(§4) and KHCO3, respectively. Cl--free ECF buffer was prepared by replacing equimolar\n(§5) protein assay kit (Bio-Rad, Hercules, CA, USA)."}, "RPE-J cells [2]": {"tested_on": "RPE-J cells", "assay": "Effect of compounds on [3H]amantadine uptake by RPE-J cells", "format": "in vitro ADME, rat", "description": "as §1, §2, §3, §4, §5"}, "TR-iBRB2 cells [3]": {"tested_on": "TR-iBRB2 cells", "conditions": "read-out: Km for uptake by TR-iBRB2 cells; cited from earlier work"}, "RPE-J cells [4]": {"tested_on": "RPE-J cells", "assay": "Verapamil uptake by RPE-J cells, effect of amantadine", "format": "in vitro ADME, rat", "description": "as §1\nCell/medium ratio = [^3H]compound (dpm) per cell protein (mg)/[^3H]compound (dpm) per medium (µL)(2)\nKinetic parameters for cell uptake, such as the maximal uptake rate (Vmax), Michaelis–Menten constant (Km), and non-saturable uptake clearance (Kd), were obtained by using the nonlinear least-squares regression analysis program (MULTI) with Equations (3)–(5), where the uptake rate of the test compound and its concentration were V and S, respectively. V = (Vmax × S)/(Km + S)(3) V = (Vmax × S)/(Km + S) + Kd × S(4) V = (Vmax1 × S)/(Km1 + S) + (Vmax2 × S)/(Km2 + S)(5) […]\nas §3, §4, §5"}, "[5]": {"conditions": "compound 0.2 mM, [3H]amantadine 1.67 µM, 3 min, 37 °C"}, "[6]": {"conditions": "compound 2.5 mM, [3H]amantadine 1.67 µM, 3 min, 37 °C"}, "[7]": {"conditions": "Rattus norvegicus, 0.05 h, read-out: [3H]amantadine uptake, % of Control, TR-iBRB2"}, "[8]": {"conditions": "Rattus norvegicus, 0.05 h, read-out: [3H]amantadine uptake, % of Control, RPE-J"}, "[9]": {"conditions": "compound 1.0 mM, [3H]amantadine 1.67 µM, 3 min, 37 °C"}}, "note": "Read-outs that look alike come from different tables or passages of the source."}
{"smiles": "C[N+](C)(C)C[C@H](O)CC(=O)[O-]", "note": "[L-Carnitine]", "values": [{"measurement": "[3H]amantadine uptake, % of Control, TR-iBRB2", "setting": "TR-iBRB2 cells [1]; [5]", "value": "111 ± 35 % of Control"}, {"measurement": "[3H]amantadine uptake, % of Control, TR-iBRB2", "setting": "TR-iBRB2 cells [1]; [6]", "value": "99.5 ± 2.3 % of Control"}, {"measurement": "[3H]amantadine uptake, % of Control, RPE-J", "setting": "RPE-J cells [2]; [5]", "value": "95.1 ± 5.2 % of Control"}, {"measurement": "[3H]amantadine uptake, % of Control, RPE-J", "setting": "RPE-J cells [2]; [6]", "value": "119 ± 28 % of Control"}]}
{"smiles": "N[C@@H](CCC(=O)O)C(=O)O", "note": "[L-Glutamic acid]", "values": [{"measurement": "activity at 2500 µM", "setting": "TR-iBRB2 cells [1]; [7]", "value": "80.2 ± 10", "unit": "%"}, {"measurement": "activity at 2500 µM", "setting": "RPE-J cells [2]; [8]", "value": "84.5 ± 16.4", "unit": "%"}]}
{"smiles": "CC(C)C[C@H](N)C(=O)O", "note": "[L-Leucine]", "values": [{"measurement": "[3H]amantadine uptake, % of Control, TR-iBRB2", "setting": "TR-iBRB2 cells [1]; [6]", "value": "112 ± 17 % of Control"}, {"measurement": "[3H]amantadine uptake, % of Control, RPE-J", "setting": "RPE-J cells [2]; [6]", "value": "113 ± 16 % of Control"}]}
{"smiles": "C[n+]1ccc(-c2ccccc2)cc1", "note": "[MPP^+, 1-methyl-4-phenylpyridinium]", "values": [{"measurement": "[3H]amantadine uptake, % of Control, TR-iBRB2", "setting": "TR-iBRB2 cells [1]; [5]", "value": "106 ± 31 % of Control"}, {"measurement": "[3H]amantadine uptake, % of Control, RPE-J", "setting": "RPE-J cells [2]; [5]", "value": "75.5 ± 5.0 % of Control"}, {"measurement": "[3H]amantadine uptake, % of Control, RPE-J", "setting": "RPE-J cells [2]; [9]", "value": "91.9 ± 5.6 % of Control"}]}
{"smiles": "CC12CC3CC(C)(C1)CC(N)(C3)C2", "note": "[Memantine]", "values": [{"measurement": "activity at 200 µM", "setting": "TR-iBRB2 cells [1]; [7]", "value": "16.7 ± 2.2", "unit": "%"}, {"measurement": "activity at 200 µM", "setting": "RPE-J cells [2]; [8]", "value": "123 ± 38", "unit": "%"}, {"measurement": "activity at 1000 µM", "setting": "RPE-J cells [2]; [8]", "value": "27.1 ± 2.6", "unit": "%"}]}
{"smiles": "Nc1ccc(C(=O)NCC(=O)O)cc1", "note": "[PAH, p-aminohippuric acid]", "values": [{"measurement": "activity at 200 µM", "setting": "TR-iBRB2 cells [1]; [7]", "value": "85.8 ± 10.8", "unit": "%"}, {"measurement": "activity at 200 µM", "setting": "RPE-J cells [2]; [8]", "value": "139 ± 33", "unit": "%"}]}
{"smiles": "CC(C)NCC(O)COc1cccc2ccccc12", "note": "(stereo not drawn) [Propranolol]", "values": [{"measurement": "reduction of [3H]amantadine uptake by TR-iBRB2 cells", "setting": "TR-iBRB2 cells [1]; compound 0.2 mM", "value": "more than 58%"}, {"measurement": "[3H]amantadine uptake, % of Control, TR-iBRB2", "setting": "TR-iBRB2 cells [1]; [5]", "value": "8.61 ± 0.75 % of Control"}, {"measurement": "Km", "setting": "TR-iBRB2 cells [3]", "value": 237, "unit": "µM"}, {"measurement": "[3H]amantadine uptake, % of Control, RPE-J", "setting": "RPE-J cells [2]; [5]", "value": "15.7 ± 5.9 % of Control"}]}
{"smiles": "COc1ccc(CN(CCN(C)C)c2ccccn2)cc1", "note": "[Pyrilamine]", "values": [{"measurement": "activity at 200 µM", "setting": "TR-iBRB2 cells [1]; [7]", "value": "20.9 ± 1.8", "unit": "%"}, {"measurement": "activity at 200 µM", "setting": "RPE-J cells [2]; [8]", "value": "77.8 ± 38.4", "unit": "%"}, {"measurement": "activity at 1000 µM", "setting": "RPE-J cells [2]; [8]", "value": "18.2 ± 1.7", "unit": "%"}]}
{"smiles": "CCc1nc(N)nc(N)c1-c1ccc(Cl)cc1", "note": "[Pyrimethamine]", "values": [{"measurement": "activity at 200 µM", "setting": "TR-iBRB2 cells [1]; [7]", "value": "44.3 ± 8.8", "unit": "%"}, {"measurement": "activity at 200 µM", "setting": "RPE-J cells [2]; [8]", "value": "88.9 ± 3.3", "unit": "%"}]}
{"smiles": "C=C[C@H]1C[N@@]2CC[C@H]1C[C@@H]2[C@@H](O)c1ccnc2ccc(OC)cc12", "note": "[Quinidine]", "values": [{"measurement": "[3H]amantadine uptake, % of Control, TR-iBRB2", "setting": "TR-iBRB2 cells [1]; [5]", "value": "13.7 ± 1.8 % of Control"}, {"measurement": "[3H]amantadine uptake, % of Control, RPE-J", "setting": "RPE-J cells [2]; [5]", "value": "34.1 ± 3.0 % of Control"}]}
{"smiles": "NCCc1c[nH]c2ccc(O)cc12", "note": "[Serotonin]", "values": [{"measurement": "activity at 200 µM", "setting": "TR-iBRB2 cells [1]; [7]", "value": "126 ± 60", "unit": "%"}, {"measurement": "activity at 200 µM", "setting": "RPE-J cells [2]; [8]", "value": "158 ± 52", "unit": "%"}]}
{"smiles": "CC[N+](CC)(CC)CC", "note": "[TEA, tetraethylammonium]", "values": [{"measurement": "[3H]amantadine uptake, % of Control, TR-iBRB2", "setting": "TR-iBRB2 cells [1]", "value": "117 ± 45 % of Control"}, {"measurement": "[3H]amantadine uptake, % of Control, RPE-J", "setting": "RPE-J cells [2]; [5]", "value": "87.7 ± 11.8 % of Control"}, {"measurement": "[3H]amantadine uptake, % of Control, RPE-J", "setting": "RPE-J cells [2]; [9]", "value": "81.8 ± 10.3 % of Control"}]}
{"smiles": "CC(C)(C)NC[C@H](O)COc1nsnc1N1CCOCC1", "note": "[Timolol]", "values": [{"measurement": "[3H]amantadine uptake, % of Control, TR-iBRB2", "setting": "TR-iBRB2 cells [1]; [5]", "value": "34.6 ± 10.6 % of Control"}, {"measurement": "[3H]amantadine uptake, % of Control, RPE-J", "setting": "RPE-J cells [2]; [5]", "value": "59.1 ± 5.1 % of Control"}]}
{"smiles": "COc1ccc(CCN(C)CCCC(C#N)(c2ccc(OC)c(OC)c2)C(C)C)cc1OC", "note": "(stereo not drawn) [Verapamil]", "values": [{"measurement": "Km", "setting": "RPE-J cells [4]", "value": "55.6 ± 5.2", "unit": "µM"}, {"measurement": "Vmax", "setting": "RPE-J cells [4]", "value": "6.31 ± 0.35 nmol/(min·mg protein)"}, {"measurement": "reduction of [3H]verapamil uptake by unlabeled verapamil", "setting": "RPE-J cells [4]", "value": 86, "unit": "%"}, {"measurement": "[3H]amantadine uptake, % of Control, TR-iBRB2", "setting": "TR-iBRB2 cells [1]", "value": "22.1 ± 6.2 % of Control"}, {"measurement": "[3H]amantadine uptake, % of Control, RPE-J", "setting": "RPE-J cells [2]", "value": "20.5 ± 4.8 % of Control"}]}
